According to article PMC8956739, “A synthetic lipopeptide targeting top-priority multidrug-resistant Gram-negative pathogens” (Nature Communications, 2022):
≈ marks a conversion by molar mass, not a printed value. Where “and” joins values, the source holds several entries; their conditions need not be identical. Equal entries are not always repeated. Where two headings read alike, the source gives them in different places. Residues, ends and D or L forms follow the SMILES beside them.

What was measured:
[1] = tested on: P. aeruginosa FADDI-PA025; assay type: cell-based, Pseudomonas aeruginosa
Procedure, shortened: (§1)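 Compounds were serially diluted in CaMHB, bacteria were added, and the lowest inhibitory concentration was recorded after broth microdilution testing.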

P. aeruginosa ATCC 27853 = assay type: cell-based, Pseudomonas aeruginosa
Procedure, shortened: as §1

[2] = tested on: P. aeruginosa FADDI-PA038; assay type: cell-based, Pseudomonas aeruginosa
Procedure, shortened: as §1

[3] = tested on: MDR clinical isolates of P. aeruginosa (n = 213, 55 carbapenem-resistant); assay type: cell-based, Pseudomonas aeruginosa
Procedure, shortened: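 MICs were determined by broth microdilution in cation-adjusted Mueller–Hinton broth (CaMHB), with clinical isolates tested alongside ATCC strains.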

[4] = tested on: K. pneumoniae FADDI-KP032; assay type: cell-based, Klebsiella pneumoniae
Procedure, shortened: as §1

[5] = tested on: K. pneumoniae FADDI-KP065; assay type: cell-based, Klebsiella pneumoniae
Procedure, shortened: as §1

in vitro = assay type: cell-based, human; conditions: human, wild-type HK-2 cells (kidney proximal tubular), Cell viability, WT
Experimental: (§2) Fig. 6 Transcriptomic changes in human kidney proximal tubular HK-2 cells following treatments with polymyxin B (PMB), colistin (COL), F287, F319, and F365. a Numbers of differentially expressed genes. Distinctive intersections are color-coded. b Cell viability difference (two-tailed Student’s t-test, n = 4 biologically independent cells, Benjamini–Hochberg adjusted P-values) between wild-type HK-2 and KCNJ16 knockout (KO) cells following 24 h treatment with lipopeptides. n.s., not significant; ^*adjusted P < 0.05, ^**adjusted P < 0.01, ^***adjusted P < 0.001. Data are shown as mean ± s.d. and individual data points. c Extracted transcriptional regulatory network from Signor database with 1-step neighbor constraints (enlarged for detail). Source data are provided as a Source Data file.

Swiss mice = assay: Acute toxicity in mice (maximum tolerated dose, IV bolus); assay type: in vivo, mouse; conditions: for MTD, single replicate: replicates 1-4
Experimental: Lipopeptide solutions were prepared in 0.9% saline and stored at 4 °C before use. Swiss mice (female, 7-week-old, 22–28 g) were used in the study. A mouse was administered an intravenous bolus of the lipopeptide (mg/kg free base) through a lateral tail vein (≤0.1 mL). After the injection, the mouse was released back into the cage and monitored for clinical signs of toxicity from 0 to 24 h after injection as follows: every 10 min in the first 2 h, every half hour from 2 to 4 h, every hour from 4 to 12 h, and every 2 h from 12 to 24 h.

[6] = tested on: MDR clinical isolates of Enterobacterales (n = 177, 152 carbapenem-resistant); assay: Extended MIC screening, MDR clinical isolates; assay type: cell-based
Experimental: MICs were determined in cation-adjusted Mueller–Hinton broth (CaMHB) by the broth micro-dilution method against ATCC strains and clinical isolates. MICs in the presence of Survanta® were determined as described above against P. aeruginosa ATCC 27853. In the 100 μL of fresh CaMHB containing polymyxins, 10% Survanta® (v/v, 2.5 mg/mL phospholipids) was added. MICs in the presence and absence of Survanta® were compared to determine the effect of binding to lung surfactant on the antibacterial activity of polymyxins.

HK-2 cells = assay: Transcriptomic analysis (RNA-Seq) of kidney cells; assay type: cell-based, human; conditions: for logFC, differential gene expression for all genes / log2FC / Fold Change: HK-2 RNA-Seq; for log2FC: Fig. 5f; for Fold Change: Fig. 5e; for num.of.degs: number of differentially expressed genes per peptide, Fig. 6a
Experimental: Human Kidney-2 (HK-2) cells (CRL-2190™, American Type Culture Collection) were treated with 100 μM colistin, F287, F319, and F365 for 24 h. Previous transcriptomic data of HK-2 cells following 24 h treatment with polymyxin B[26] were also employed for comparative bioinformatic analysis. RNA extraction was conducted as described above. Raw reads were aligned to genome GRCh38.94 (Ensembl genome database, http://ftp.ensembl.org/pub/release-94/fasta/homo_sapiens/dna/) using […] and summarized by featureCounts. Differentially expressed genes were determined using limma 3.46.0, with a combination of fold change ≥ 1.5 and FDR (by Benjamini–Hochberg algorithm) adjusted P-value ≤ 0.05 (n = 3). Key regulatory genes of HK-2 were analyzed in the context of signaling network in the Signor 2.0 database. Enrichment analysis of gene differential expression in HK-2 cells was conducted using enrichR 2.1. UpSetR 1.4.0, ComplexHeatmap 2.6.2, circlize 0.4.13 and iGraph 1.2.11 were used for data visualization. Raw data were deposited in the Short Reads Archive database under accession numbers SRR15239061-SRR15239078.

wild-type HK-2 cells = assay: in vitro; assay type: cell-based, human; conditions: human, wild-type HK-2 cells (kidney proximal tubular), 24 h
Experimental: as §2

[7] = MDR clinical isolates of (n = 213, 55 carbapenem-resistant)
[8] = locus chr1 629640-630683 (ENSG00000225630 by coordinates)
[9] = locus chr1 632757-633438 (ENSG00000229344 by coordinates)

## CCCCCCCC(=O)N[C@@H](CCN)C(=O)N[C@H](C(=O)N[C@@H](CN)C(=O)N[C@H]1CCNC(=O)[C@H]([C@@H](C)O)NC(=O)[C@H](CCN)NC(=O)[C@H](CCN)NC(=O)[C@H](CC)NC(=O)[C@@H](CC(C)C)NC(=O)[C@H](CCN)NC1=O)[C@@H](C)O [Lipopeptide F287] (HELM PEPTIDE1{[CCCCCCCC(=O)[*:2]].[Dab].T.[NC[C@H](N[*:1])C(=O)[*:2]].[Dab].[Dab].[dL].[Abu].[Dab].[Dab].T}$PEPTIDE1,PEPTIDE1,5:R3-11:R2$$$V2.0)
[1]; FADDI-PA025
  MIC P. aeruginosa FADDI-PA025: 2 µg/mL (≈ 1.8 µM)
P. aeruginosa ATCC 27853; ATCC 27853
  MIC P. aeruginosa ATCC 27853: 0.5 µg/mL (≈ 0.449 µM)
  MIC, No Survanta: 1 µg/mL (≈ 0.898 µM)
[2]; FADDI-PA038
  MIC P. aeruginosa FADDI-PA038: 0.5 µg/mL (≈ 0.449 µM)
[3]; [7]
  MIC50: 1 µg/mL (≈ 0.898 µM)
  MIC90: 1 µg/mL (≈ 0.898 µM)
[3]; isolates with MIC 0.05 μg/mL (so in the source)
  Number of isolates: 0
[3]; isolates with MIC 0.125 μg/mL (so in the source)
  Number of isolates: 0
[3]; isolates with MIC 0.25 μg/mL (so in the source)
  Number of isolates: 7
[3]; isolates with MIC 0.5 μg/mL (so in the source)
  Number of isolates: 26
[3]; isolates with MIC 1 μg/mL (so in the source)
  Number of isolates: 168
[3]; isolates with MIC 2 μg/mL (so in the source)
  Number of isolates: 9
[3]; isolates with MIC 4 μg/mL (so in the source)
  Number of isolates: 0
[3]; isolates with MIC 8 μg/mL (so in the source)
  Number of isolates: 1
[3]; isolates with MIC 16 μg/mL (so in the source)
  Number of isolates: 0
[3]; isolates with MIC 32 μg/mL (so in the source)
  Number of isolates: 2
[3]; isolates with MIC 64 μg/mL (so in the source)
  Number of isolates: 0
[3]; isolates with MIC >64 μg/mL (so in the source)
  Number of isolates: 0
[4]; FADDI-KP032
  MIC K. pneumoniae FADDI-KP032: <0.125 µg/mL
[5]; FADDI-KP065
  MIC K. pneumoniae FADDI-KP065: <0.125 µg/mL
In vitro; Rep1
  viability at 24 h: 52%
In vitro; Rep2
  viability at 24 h: 54.3%
In vitro; Rep4
  viability at 24 h: 47%
Swiss mice
  MTD, single replicate: 6.6 mg/kg
[6]; isolates with MIC 0.05 µg/mL
  Number of isolates: 0
[6]; isolates with MIC 0.125 µg/mL
  Number of isolates: 0
[6]; isolates with MIC 0.25 µg/mL
  Number of isolates: 17
[6]; isolates with MIC 0.5 µg/mL
  Number of isolates: 131
[6]; isolates with MIC 1 µg/mL
  Number of isolates: 5
[6]; isolates with MIC 2 µg/mL
  Number of isolates: 2
[6]; isolates with MIC 4 µg/mL
  Number of isolates: 1
[6]; isolates with MIC 8 µg/mL
  Number of isolates: 2
[6]; isolates with MIC 16 µg/mL
  Number of isolates: 5
[6]; isolates with MIC 32 µg/mL
  Number of isolates: 7
[6]; isolates with MIC 64 µg/mL
  Number of isolates: 3
[6]; isolates with MIC >64 µg/mL
  Number of isolates: 4
HK-2 cells; Geneid ENSG00000223972
  logFC, differential gene expression for all genes: -1.073
HK-2 cells; Geneid ENSG00000227232
  logFC, differential gene expression for all genes: -0.08434
HK-2 cells; Geneid ENSG00000233750
  logFC, differential gene expression for all genes: -0.6124
HK-2 cells; Geneid ENSG00000278267
  logFC, differential gene expression for all genes: 0.2137
HK-2 cells; gene ENSG00000017483 SLC38A5
  log2FC: 0.6808
HK-2 cells; gene ENSG00000023445 BIRC3
  log2FC: -0.3448
HK-2 cells; gene ENSG00000056558 TRAF1
  log2FC: 0.757
HK-2 cells; gene ENSG00000066468 FGFR2
  log2FC: -1.141
HK-2 cells; locus chr1 629062-629433 (ENSG00000225972 by coordinates)
  Fold Change: 0.9117
HK-2 cells; [8]
  Fold Change: 0.9406
HK-2 cells
  num.of.degs: 1076

## CCCCCCCC(=O)N[C@@H](CCN)C(=O)N[C@H](C(=O)N[C@@H](CCN)C(=O)N[C@H]1CCNC(=O)[C@H]([C@@H](C)O)NC(=O)[C@H](CCN)NC(=O)[C@H](CCN)NC(=O)[C@H](CC)NC(=O)[C@@H](CC(C)C)NC(=O)[C@H](CCN)NC1=O)[C@@H](C)O [Lipopeptide F319] (HELM PEPTIDE1{[CCCCCCCC(=O)[*:2]].[Dab].T.[Dab].[Dab].[Dab].[dL].[Abu].[Dab].[Dab].T}$PEPTIDE1,PEPTIDE1,5:R3-11:R2$$$V2.0)
[1]; FADDI-PA025
  MIC P. aeruginosa FADDI-PA025: 4 µg/mL (≈ 3.55 µM)
P. aeruginosa ATCC 27853; ATCC 27853
  MIC P. aeruginosa ATCC 27853: 0.5 µg/mL (≈ 0.443 µM)
  MIC, No Survanta: 1 µg/mL (≈ 0.887 µM)
[2]; FADDI-PA038
  MIC P. aeruginosa FADDI-PA038: 4 µg/mL (≈ 3.55 µM)
[4]; FADDI-KP032
  MIC K. pneumoniae FADDI-KP032: 0.25 µg/mL (≈ 0.222 µM)
[5]; FADDI-KP065
  MIC K. pneumoniae FADDI-KP065: <0.125 µg/mL
In vitro; Rep1
  viability at 24 h: 79%
In vitro; Rep2
  viability at 24 h: 79.1%
In vitro; Rep3
  viability at 24 h: 78.8%
In vitro; Rep4
  viability at 24 h: 70.1%
HK-2 cells; Geneid ENSG00000223972
  logFC, differential gene expression for all genes: -0.1551
HK-2 cells; Geneid ENSG00000227232
  logFC, differential gene expression for all genes: -0.02116
HK-2 cells; Geneid ENSG00000233750
  logFC, differential gene expression for all genes: -0.4424
HK-2 cells; Geneid ENSG00000278267
  logFC, differential gene expression for all genes: 0.1872
HK-2 cells; gene ENSG00000017483 SLC38A5
  log2FC: 0.557
HK-2 cells; gene ENSG00000023445 BIRC3
  log2FC: -0.6344
HK-2 cells; gene ENSG00000056558 TRAF1
  log2FC: 0.7378
HK-2 cells; gene ENSG00000066468 FGFR2
  log2FC: -1.084
HK-2 cells; [8]
  Fold Change: 0.3467
HK-2 cells; [9]
  Fold Change: 0.6059
HK-2 cells
  num.of.degs: 763

## Colistin [reference compound]
[1]; MDR clinical isolate
  MIC P. aeruginosa FADDI-PA025: 2 µg/mL
P. aeruginosa ATCC 27853
  MIC P. aeruginosa ATCC 27853: 0.5 µg/mL
P. aeruginosa ATCC 27853; 10% Survanta vs none
  increase of MIC in the presence of lung surfactant: 8 fold
P. aeruginosa ATCC 27853; P. aeruginosa ATCC 27853, 10% Survanta
  MIC, 10% Survanta: 8 µg/mL
P. aeruginosa ATCC 27853; P. aeruginosa ATCC 27853, no surfactant
  MIC, No Survanta: 1 µg/mL
[2]; carbapenem-resistant isolate
  MIC P. aeruginosa FADDI-PA038: 1 µg/mL
[4]; carbapenem-resistant isolate
  MIC K. pneumoniae FADDI-KP032: 1 µg/mL
[5]; carbapenem-resistant isolate
  MIC K. pneumoniae FADDI-KP065: 0.25 µg/mL
wild-type HK-2 cells
  Cell viability, WT, Rep1: 52.6875
  Cell viability, WT, Rep2: 59.5382
  Cell viability, WT, Rep4: 47.0908
Swiss mice
  MTD, single replicate: 6 mg/kg and 5.8 mg/kg and 5 mg/kg
Swiss mice; single IV bolus dose, n = 4
  average maximum tolerated dose (MTD): 5.3 mg/kg
HK-2 cells; Geneid ENSG00000223972
  logFC, differential gene expression for all genes: -0.6712
HK-2 cells; Geneid ENSG00000227232
  logFC, differential gene expression for all genes: -0.1985
HK-2 cells; Geneid ENSG00000233750
  logFC, differential gene expression for all genes: -0.899
HK-2 cells; Geneid ENSG00000278267
  logFC, differential gene expression for all genes: -0.3433
HK-2 cells; gene ENSG00000017483 SLC38A5
  log2FC: 0.7893
HK-2 cells; gene ENSG00000023445 BIRC3
  log2FC: -0.6239
HK-2 cells; gene ENSG00000056558 TRAF1
  log2FC: 0.6268
HK-2 cells; gene ENSG00000066468 FGFR2
  log2FC: -1.3101
HK-2 cells; [8]
  Fold Change: 0.2606
HK-2 cells; [9]
  Fold Change: 0.2186
HK-2 cells
  num.of.degs: 1282
